Bounds are passed on as bounds.

In one test the test system is rat cortical neurons. Put plainly: Hypoxia-induced apoptosis of rat cortical neurons. The test is classed as cell-based, Wistar rat. The settings on record: Cortical neurone, 95% N2/5% CO2, Cell Death Detection ELISA (DNA fragmentation). The protocol: Cortical neurons are dissociated from Wistar rat embryos (E17) by a modification of the procedure of Rogers et al. 1997, Brain Res. Bulletin, 44:131. Briefly, cerebral cortices are isolated aseptically from 15-20 Wistar rat embryos. A cell suspension is prepared by mincing the cerebral cortices and digesting them with papain. Cells are washed with ovomucoid enzyme inhibitor and DNaseI and plated onto Poly-D lysine coated plates in high glucose DMEM containing 10% heat-inactivated fetal calf serum, L-glutamine, penicillin and streptomycin. The yield of neurons is […] per embryo and they are 80-90% viable as assessed by Trypan blue exclusion.
The neurons are cultured in complete medium at 37° C. in a normal atmosphere for 48 hours prior to the hypoxia experiments. For hypoxia, the normal cell medium is replaced by oxygen-depleted serum-free medium. Cells are incubated in an atmosphere of 95% N2/5% CO2 for various lengths of time. Compounds are dissolved in DMSO at 100 mM then diluted in medium and added to the culture from time=0. The level of apoptosis is measured using a Cell Death Detection ELISA kit (Roche) which detects DNA fragmentation. Plates are read at 405 nm. Controls included cells cultured in aerobic conditions in serum-containing medium (+serum) and cells cultured in aerobic conditions in serum-deprived medium (−serum).

In test [1] the test system is IL-1β secretion from human whole blood. Put plainly: Inhibition of IL-1β secretion from whole blood. The settings on record: human whole blood diluted 1:2, LPS 5 ng/ml, 18 hours, ELISA. The test is classed as cell-based. The protocol:
Human blood is freshly drawn from healthy donors and diluted 1:2 in PBS. To 500 μl of diluted blood […] of prediluted test compound in RPMI medium and […] LPS (5 ng/ml final concentration on the plate) are added (LPS, Serotype 0111:B4, Sigma L3012). After stimulation for 18 hours supernatants are collected and assayed for IL-1β levels using the appropriate ELISA kit (R&D systems).
In general terms: In an ELISA, binding on a coated surface is turned into a signal by an enzyme label.

By IC50 is commonly meant the midpoint of a concentration-inhibition curve. Read a high IC50 as weaker potency. For the compound `CCCC(=O)Nc1cccn([C@@H](CC)C(=O)N[C@@H](CC(=O)O)C(=O)COc2c(F)c(F)cc(F)c2F)c1=O` [Compound 3, (S,S)-3-[2-(3-Butyrylamino-2-oxo-2H-pyridin-1-yl)-butyrylamino]-4-oxo-5-(2,3,5,6-tetrafluoro-phenoxy)-pentanoic acid], the IC50 is 1000 to 10000 nM with rat cortical neurons and less than 500 nM in test [1]. Turning to `CC[C@@H](C(=O)N[C@@H](CC(=O)O)C(=O)COc1c(F)c(F)cc(F)c1F)n1cccc(NC(=O)COC)c1=O` [Compound 6, (S,S)-3-{2-[3-(2-Methoxy-acetylamino)-2-oxo-2H-pyridin-1-yl]-butyrylamino}-4-oxo-5-(2,3,5,6-tetrafluoro-phenoxy)-pentanoic acid], the results for the IC50 (in the test with rat cortical neurons; in test [1]) were 1000 to 10000 nM and 500 to 5000 nM, respectively. For `CC[C@@H](C(=O)N[C@@H](CC(=O)O)C(=O)COc1c(F)c(F)cc(F)c1F)n1cccc(NC(=O)c2ccoc2)c1=O` [Compound 8, (S,S)-3-(2-{3-[(Furan-3-carbonyl)-amino]-2-oxo-2H-pyridin-1-yl}-butyrylamino)-4-oxo-5-(2,3,5,6-tetrafluoro-phenoxy)-pentanoic acid], in that order: 1000 to 10000 nM and 500 to 5000 nM. As for `CC[C@@H](C(=O)N[C@@H](CC(=O)O)C(=O)COc1c(F)c(F)cc(F)c1F)n1cccc(NC(=O)c2cccnc2)c1=O` [Compound 9, (S,S)-4-Oxo-3-(2-{2-oxo-3-[(pyridine-3-carbonyl)-amino]-2H-pyridin-1-yl}-butyrylamino)-5-(2,3,5,6-tetrafluoro-phenoxy)-pentanoic acid], the IC50 was in the range of 1000 to 10000 nM in the test on rat cortical neurons and 500 to 5000 nM in test [1].

For the compound `CC[C@@H](C(=O)N[C@@H](CC(=O)O)C(=O)COc1c(F)c(F)cc(F)c1F)n1cccc(NC(=O)c2ccsn2)c1=O` [Compound 10, (S,S)-3-(2-{3-[(Isothiazole-3-carbonyl)-amino]-2-oxo-2H-pyridin-1-yl}-butyrylamino)-4-oxo-5-(2,3,5,6-tetrafluorophenoxy)-pentanoic acid], the 50% inhibitory concentration (IC50) in the test on rat cortical neurons is less than 1000 nM; in test [1], less than 500 nM. `CC[C@@H](C(=O)N[C@@H](CC(=O)O)C(=O)COc1c(F)c(F)cc(F)c1F)n1cccc(NC(=O)Cc2ccccc2)c1=O` [Compound 12, (S,S)-4-Oxo-3-[2-(2-oxo-3-phenylacetylamino-2H-pyridin-1-yl)-butyrylamino]-5-(2,3,5,6-tetrafluoro-phenoxy)-pentanoic acid]: the half-inhibitory concentration (IC50) with rat cortical neurons was less than 1000 nM; in test [1], 500 to 5000 nM. For `CCNC(=O)Nc1cccn([C@@H](CC)C(=O)N[C@@H](CC(=O)O)C(=O)COc2c(F)c(F)cc(F)c2F)c1=O` [Compound 14, (S,S)-3-{2-[3-(3-Ethyl-ureido)-2-oxo-2H-pyridin-1-yl]-butyrylamino}-4-oxo-5-(2,3,5,6-tetrafluoro-phenoxy)-pentanoic acid], in that order: 1000 to 10000 nM and less than 500 nM.

Take `CC[C@@H](C(=O)N[C@@H](CC(=O)O)C(=O)COc1c(F)c(F)cc(F)c1F)n1cccc(NC(=O)N(CC)CC)c1=O` [Compound 15, (S,S)-3-{2-[3-(3,3-Diethyl-ureido)-2-oxo-2H-pyridin-1-yl]-butyrylamino}-4-oxo-5-(2,3,5,6-tetrafluoro-phenoxy)-pentanoic acid]: the half-maximal inhibitory concentration (IC50) in the test on rat cortical neurons is less than 1000 nM; in test [1], 500 to 5000 nM. `CC(C)[C@@H](C(=O)N[C@@H](CC(=O)O)C(=O)COc1c(F)c(F)cc(F)c1F)n1cccc(NC(=O)Cc2ccccc2)c1=O` [Compound 23, (S,S)-3-[3-Methyl-2-(2-oxo-3-phenylacetylamino-2H-pyridin-1-yl)-butyrylamino]-4-oxo-5-(2,3,5,6-tetrafluoro-phenoxy)-pentanoic acid]: the half-maximal inhibitory concentration (IC50) in test [1] lay in the range of 500 to 5000 nM. Consider `CCS(=O)(=O)Nc1cccn([C@H](C(=O)N[C@@H](CC(=O)O)C(=O)COc2c(F)c(F)cc(F)c2F)C(C)C)c1=O` [Compound 24, (S,S)-3-[2-(3-Ethanesulfonylamino-2-oxo-2H-pyridin-1-yl)-3-methyl-butyrylamino]-4-oxo-5-(2,3,5,6-tetrafluoro-phenoxy)-pentanoic acid], for which the half-inhibitory concentration (IC50) in the test with rat cortical neurons was 1000 to 10000 nM.

These data come from patent US7960415B2, “Caspase inhibitors and uses thereof” (Vertex Pharmaceutical Incoporated, priority 2003, dated 2011).
